For 30 molecules, IC50 results are on record in patent US20250171459A1, “2-METHYL-4',5'-DIHYDROSPIRO[PIPERIDINE-4,7'-THIENO[2,3-C]PYRAN] DERIVATIVES AS INHIBITORS OF APOL1 AND METHODS OF USING SAME” (Vertex Pharmaceuticals Incorporated, priority 2022, published 2025).

The structures appear in SMILES notation.

The target in this experiment is T1, APOL1 (Homo sapiens, UniProt O14791).
T1 sequence (O14791 1-398 S342G/I384M): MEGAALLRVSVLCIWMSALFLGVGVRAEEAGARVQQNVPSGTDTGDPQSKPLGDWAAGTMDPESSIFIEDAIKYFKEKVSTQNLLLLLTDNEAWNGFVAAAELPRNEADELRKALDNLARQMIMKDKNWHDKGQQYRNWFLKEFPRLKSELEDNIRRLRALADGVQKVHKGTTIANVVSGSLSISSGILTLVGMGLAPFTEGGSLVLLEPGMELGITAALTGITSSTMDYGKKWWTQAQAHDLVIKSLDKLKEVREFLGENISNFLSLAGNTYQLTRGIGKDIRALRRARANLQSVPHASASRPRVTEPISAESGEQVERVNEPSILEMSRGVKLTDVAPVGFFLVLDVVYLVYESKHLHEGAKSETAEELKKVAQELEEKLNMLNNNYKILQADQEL
Description: MultiTox-Fluor Multiplex Cytotoxicity Assay in tet-inducible APOL1 T-REx-HEK293 cells (cell rescue, ratio of dead to live cells). It is filed as cell-based. The following applies: tet-inducible transgenic APOL1 T-REx-HEK293 cell lines, 50 ng/mL tet, 24 hours; read-out: IP50 (i.e., IC50 for cell proliferation). The procedure, abridged:
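T-REx-HEK293 cells with tet-inducible APOL1 were treated with compound (10 μM top, 10-point 3-fold dilution, duplicate) plus 50 ng/mL tetracycline for 24 h at 37° C, in DMEM with 2% tet-free FBS. MultiTox-Fluor protease signals gave a dead/live ratio, normalized to no tet (100% viability) and tet alone (0%).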

In the case of `C[C@H]1C[C@@]2(CCN1Cc1cnc(N3CCOCC3)nc1)OCCc1cc(Cl)sc12` [Compound 658], the IC50 is below 100 nM.

For `C[C@H]1C[C@@]2(CCN1Cc1ccc(C(=O)N(C)C)cc1)OCCc1cc(Cl)sc12` [Compound 660], the IC50 lay within 100 to 500 nM.

For the molecule `COc1ccc(CN2CC[C@]3(C[C@@H]2C)OCCc2cc(Cl)sc23)cn1` [Compound 662], the IC50 was below 100 nM.

Turning to `COc1cc(CN2CC[C@]3(C[C@@H]2C)OCCc2cc(Cl)sc23)ccc1OCC(N)=O` [Compound 663], the IC50 was below 100 nM.

Take `C[C@H]1C[C@@]2(CCN1Cc1ccc3c(c1)n(C)c(=O)n3C)OCCc1cc(Cl)sc12` [Compound 664]: the IC50 was below 100 nM.

Consider `C[C@H]1C[C@@]2(CCN1Cc1ccc(F)cn1)OCCc1cc(Cl)sc12` [Compound 665], for which the IC50 lay within 100 to 500 nM.

As to `C[C@H]1C[C@@]2(CCN1Cc1cnccn1)OCCc1cc(Cl)sc12` [Compound 666], the IC50 is 100 to 500 nM.

Consider `C[C@H]1C[C@@]2(CCN1Cc1ccc(C#N)nc1)OCCc1cc(Cl)sc12` [Compound 667], for which the IC50 lay in the range of 100 to 500 nM.

Consider `C[C@H]1C[C@@]2(CCN1Cc1ccccn1)OCCc1cc(Cl)sc12` [Compound 668], for which the IC50 fell in the range of 500 to 1000 nM.

On to `C[C@H]1C[C@@]2(CCN1Cc1ccc(S(C)(=O)=O)c(F)c1)OCCc1cc(Cl)sc12` [Compound 669], for which the IC50 fell in the range of 100 to 500 nM.

In the case of `C[C@H]1C[C@@]2(CCN1CC1CCN(S(C)(=O)=O)CC1)OCCc1cc(Cl)sc12` [Compound 670], the IC50 lay in the range of 100 to 500 nM.

As to `Cc1nccn1-c1ccc(CN2CC[C@]3(C[C@@H]2C)OCCc2cc(Cl)sc23)cc1` [Compound 671], the IC50 is below 100 nM.

For `C[C@H]1C[C@@]2(CCN1Cc1ccc(F)cc1)OCCc1cc(Cl)sc12` [Compound 672], the IC50 was in the range of 100 to 500 nM.

In the case of `C[C@H]1C[C@@]2(CCN1CCC1CCOCC1)OCCc1cc(Cl)sc12` [Compound 673], the IC50 was in the range of 500 to 1000 nM.

As for `Cc1ncccc1CN1CC[C@]2(C[C@@H]1C)OCCc1cc(Cl)sc12` [Compound 674], the IC50 was in the range of 500 to 1000 nM.

For `Cc1ccc(CN2CC[C@]3(C[C@@H]2C)OCCc2cc(Cl)sc23)c(C)n1` [Compound 675], the IC50 is 100 to 500 nM.

On to `C[C@H]1C[C@@]2(CCN1CC1(C)COC1)OCCc1cc(Cl)sc12` [Compound 676], for which the IC50 fell in the range of 100 to 500 nM.

Consider `Cc1cncc(N2CCC(CN3CC[C@]4(C[C@@H]3C)OCCc3cc(Cl)sc34)CC2)n1` [Compound 677], for which the IC50 was in the range of 500 to 1000 nM.

As to `C[C@H]1C[C@@]2(CCN1Cc1ccncc1F)OCCc1cc(Cl)sc12` [Compound 678], the IC50 fell in the range of 500 to 1000 nM.

As for `C[C@H]1C[C@@]2(CCN1Cc1cn3c(n1)CCC3)OCCc1cc(Cl)sc12` [Compound 679], the IC50 fell in the range of 500 to 1000 nM.

As for `Cc1cccc(CN2CC[C@]3(C[C@@H]2C)OCCc2cc(Cl)sc23)n1` [Compound 680], the IC50 lay within 500 to 1000 nM.

`C[C@H]1C[C@@]2(CCN1Cc1ccnn1C)OCCc1cc(Cl)sc12` [Compound 681]: the IC50 was 500 to 1000 nM.

On to `C[C@H]1C[C@@]2(CCN1Cc1ccccc1F)OCCc1cc(Cl)sc12` [Compound 682], for which the IC50 is 100 to 500 nM.

Regarding `Cc1ncc(CN2CC[C@]3(C[C@@H]2C)OCCc2cc(Cl)sc23)n1C` [Compound 683], the IC50 was in the range of 500 to 1000 nM.

`C[C@H]1C[C@@]2(CCN1Cc1ncccc1F)OCCc1cc(Cl)sc12` [Compound 684]: the IC50 was 500 to 1000 nM.

Consider `C[C@H]1C[C@@]2(CCN1CC1CCOCC1)OCCc1cc(Cl)sc12` [Compound 685], for which the IC50 lay within 500 to 1000 nM.

For `C[C@H]1C[C@@]2(CCN1Cc1ncn3ccccc13)OCCc1cc(Cl)sc12` [Compound 686], the IC50 is 500 to 1000 nM.

With `C[C@H]1C[C@@]2(CCN1Cc1cccc(F)c1O)OCCc1cc(Cl)sc12` [Compound 687], the IC50 lay within 500 to 1000 nM.

Regarding `C[C@H]1C[C@@]2(CCN1Cc1cccc(F)c1)OCCc1cc(Cl)sc12` [Compound 688], the IC50 is 500 to 1000 nM.

As for `COc1cccc(CN2CC[C@]3(C[C@@H]2C)OCCc2cc(Cl)sc23)n1` [Compound 689], the IC50 is 500 to 1000 nM.
